According to US8518707B2, “Method of monitoring adsorbent bed breakthrough in a process for producing alkyl esters from vegetable or animal oil and from an aliphatic monoalcohol” (IFP Energies Novelles, priority 2008, dated 2013):

Experiments:
[1] = Solubility limit of glycerol in vegetable rape oil methyl ester (equilibrium with excess glycerol, GC per EN 14,214); format: physicochemical; settings: solubility limit in vegetable rape oil methyl ester phase
From the text: It has therefore been necessary to determine it. Experimental measurements were therefore carried out on the vegetable rape oil methyl ester/glycerol system. The solubility measurements consisted in bringing together ester and glycerol in excess so as to obtain two distinct phases and to be sure the ester phase is saturated with glycerol, in a thermostat-controlled oven, at the selected temperature, long enough for equilibrium to be reached. A sample is then taken from the ester phase and analysed by gas chromatography according to the method of determining glycerol in ester described in the EN 14,214 standard.

[2] = Soluble glycerol in the ester stream after methanol evaporation (Esterfip-H process); format: physicochemical; settings: methyl ester stream after alcohol evaporation, ambient temperature
From the text: In the Esterfip-H™ process developed by IFP and using a heterogeneous catalyst, separation between the glycerol and the ester produced occurs in several stages. In fact, methanol acting as a co-solubilizing agent for the methyl esters and the glycerol, the alcohol evaporation stage carried out at the reaction section outlet makes part of the glycerol present in the stream, in a proportion ranging between 0.1 and 5% by mass, insoluble. The soluble part represents, at ambient temperature, 500 to 700 ppm mass, the allowable maximum content set by the European standard being 200 ppm mass of free glycerol. Both the insoluble glycerol and part of the soluble glycerol therefore have to be separated. Separation is first performed through gravity decantation in a decanter drum. The ester stream flowing from the decanter is then sent to a coalescer. The glycerin phase stream is withdrawn at the bottom point of the coalescer. Methods allowing these two separation stages to be improved are described in the patent applications filed by the assignee under No. FR-07/04,711 and FR-07/04,715.

[3] = cited from earlier work

OCC(O)CO [glycerol]
Climit(glycerol) ([1]; T 20 °C): 320 ppm
Climit(glycerol) ([1]; T 43 °C): 484 ppm
Climit(glycerol) ([1]; T 61 °C): 813 ppm
Climit(glycerol) ([1]; T 80 °C): 1233 ppm
soluble part of glycerol in ester stream [2]: 500 to 700 ppm mass
solubility in alcohols ([3]; alcohols): infinitely soluble
solubility in benzene ([3]; benzene): totally insoluble
solubility in ethers ([3]; ethers): little soluble
solubility in water ([3]; water): infinitely soluble
